From PMC9021288 (Nature Communications, 2022)
pIC50: −log10 of the molar value. “Also recorded” adds a separate entry of the source.

Tests used:
[1] = system: P. falciparum (NF54-HGL) stage V gametocytes fed to A. stephensi; experiment: Transmission-blocking mosquito feeding assay (oocyst luminescence); type: cell-based, Plasmodium falciparum
Procedure: The transmission-blocking activity of compounds was determined as described previously. Briefly, NF54-HGL parasites were set up at 1% parasitemia in a semi-automated shaker system at 5% hematocrit. […] Eight days after the feed, luminescence was quantified to determine oocyst intensity.

[2] = system: control-cKD P. falciparum; experiment: Drug sensitivity of control conditional knockdown parasites; type: cell-based, Plasmodium falciparum; conditions: 0 nM vs 500 nM aTc
Procedure: Replication assays were performed using a SYBR Green method as described previously. Briefly, asynchronous parasites were diluted to 0.83% parasitemia, 3% hematocrit in 30 µl medium, and added to 30 µl of diluted compounds in medium (0.1% DMSO final concentration) in black 384-wells plates. After a 72-h incubation, 30 µl of SYBR Green diluted in lysis buffer was added according to the manufacturer’s protocol (Life Technologies). Fluorescence intensity was measured on a BioTek Synergy 2 Plate Reader after 1-h incubation and was normalized to a DMSO control (100% growth) and DHA- or epoxomicin-treatment (no growth). […] Parasite survival was assessed by flow cytometry on an Accuri C6 (BD Biosciences) with BD C6 Plus software using SYBR Green and MitoTracker Deep Red FM (Life Technologies) as nuclear stain and vital dye, respectively, and data were analyzed using FlowJo (10.5.0). […] Luminescence was measured after 72 h using the Renilla-Glo(R) Luciferase Assay System (Promega E2750) and the GlomAX® Discover Multimode Microplate Reader (Promega). The luminescence values were normalized to DMSO vehicle (100% growth) and 200 nM chloroquine-treated (no growth) samples as controls.

[3] = Human PK prediction (allometry, in vitro clearance, GastroPlus)
Procedure: A blood sample from the saphenous vein was collected into heparinized capillary tubes at multiple intervals between 0.25 and 24 h after dosing. Subsequently, samples were spun down at 1640 g for 5-10 min at 4 °C within 30 min after collection and plasma was collected. […] Urine was collected following an intravenous dose in both rat and dog, allowing renal clearance to be estimated. Human renal clearance was estimated from dog renal clearance as previously described[40] and other human PK parameters were predicted using allometric scaling and/or in vitro clearance data. PK parameters were calculated by naïve pooled approach using WinNonLin software (Phoenix, version 6.3).

[4] = system: human peripheral blood lymphocytes; experiment: In vitro micronucleus screening assay
Procedure: Safety studies were performed by commercial services using their standard protocols. […] Genotoxicity was investigated using the Ames test (Bacterial Reverse Mutation Assay) (Covance Laboratories Ltd, North Yorkshire, England). In vitro mammalian cell micronucleus screening assay was studied in human peripheral blood lymphocytes (BioReliance Corporation, Rockville, USA). Cardiotoxicity was determined against the hERG channel in an automated patch clamp assay using the Qpatch or against the hNaV 1.5, hKV 1.5 and hCaV 1.2 using a manual patch-clamp technique (Metrion Biosciences, Cambridge, UK). Cytotoxicity in human and rat primary hepatocytes was assessed using the CellTiter-Blue assay performed by commercial services (KaLy-Cell). The viability of HepG2 cells was monitored through the addition of 1 mM resazurin. Following 6 h incubation, the relative amount of reduced resazurin was detected in a fluorimeter and compared to the assay controls (vehicle: 0.1% DMSO and positive control: 10 µM puromycin).

[5] = Plasma protein binding, mouse
[6] = 4-hour treatment + S9, 13.6 ug/ml
[7] = 4-hour treatment + S9, 19.4 ug/ml
[8] = 4-hour treatment + S9, 27.7 ug/ml
[9] = 4-hour treatment + S9, 39.5 ug/ml
[10] = 4-hour treatment + S9, 56.5 ug/ml
[11] = 4-hour treatment + S9, 80.7 ug/ml
[12] = 4-hour treatment + S9, 115 ug/ml
[13] = 4-hour treatment + S9, 165 ug/ml
[14] = 4-hour treatment + S9, 235 ug/ml
[15] = 4-hour treatment + S9, 336 ug/ml
[16] = 4-hour treatment + S9, 480 ug/ml
[17] = 4-hour treatment + S9, 686 ug/ml
[18] = 4-hour treatment + S9, 980 ug/ml
[19] = 4-hour treatment + S9, 1400 ug/ml
[20] = 4-hour treatment + S9, 2000 ug/ml
[21] = 4-hour treatment - S9, 13.6 ug/ml
[22] = 4-hour treatment - S9, 19.4 ug/ml
[23] = 4-hour treatment - S9, 27.7 ug/ml
[24] = 4-hour treatment - S9, 39.5 ug/ml
[25] = 4-hour treatment - S9, 56.5 ug/ml
[26] = 4-hour treatment - S9, 80.7 ug/ml
[27] = 4-hour treatment - S9, 115 ug/ml
[28] = 4-hour treatment - S9, 165 ug/ml
[29] = 4-hour treatment - S9, 235 ug/ml
[30] = 4-hour treatment - S9, 336 ug/ml
[31] = 4-hour treatment - S9, 480 ug/ml
[32] = 4-hour treatment - S9, 686 ug/ml
[33] = 4-hour treatment - S9, 980 ug/ml
[34] = 4-hour treatment - S9, 1400 ug/ml
[35] = 4-hour treatment - S9, 2000 ug/ml

C[C@@H](CNC(=O)[C@H](O)C(C)(C)CO)NC(=O)c1cc(F)c(F)cc1F [MMV693183]
midgut infection ([1]; 1 µM directly at the time of the mosquito feed): did not inhibit midgut infection | pIC50 ([1]; gametocytes treated 24 h before feeding to A. stephensi, read-out: IC50 oocyst formation): 7.42 | IC50 change upon knockdown [2]: no difference in sensitivity | biopharmaceutical classification system class [3]: class I | estimated human total clearance ([3]; allometry with MLP correction): 1.8 mL/min/kg | CL, total ([3]; human predicted): 1.11 mL/min/kg | V1 ([3]; human predicted): 0.843 L/kg | V2 ([3]; human predicted): 1.97 L/kg | Vss ([3]; human predicted): 2.81 L/kg | half-life ([3]; human predicted): 32.4 h | CL, renal ([3]; human predicted from dog renal clearance): 0.60 mL/min/kg | CL, hepatic ([3]; human predicted from in vitro hepatocyte clearance): 0.51 mL/min/kg | allometric clearance exponent ([3]; simple allometry): 0.967 | CBPI [4, 6]: 1.808 | Cytotoxicity (%) [4, 6]: 12% | CBPI [4, 7]: 1.792 | Cytotoxicity (%) [4, 7]: 14% | CBPI [4, 8]: 1.76 | Cytotoxicity (%) [4, 8]: 17% | CBPI [4, 9]: 1.788 | Cytotoxicity (%) [4, 9]: 14% | CBPI [4, 10]: 1.84 | Cytotoxicity (%) [4, 10]: 9% | CBPI [4, 11]: 1.792 | Cytotoxicity (%) [4, 11]: 14% | CBPI [4, 12]: 1.86 | Cytotoxicity (%) [4, 12]: 7% | CBPI [4, 13]: 1.824 | Cytotoxicity (%) [4, 13]: 10% | CBPI [4, 14]: 1.772 | Cytotoxicity (%) [4, 14]: 16% | CBPI [4, 15]: 1.824 | Cytotoxicity (%) [4, 15]: 10% | CBPI [4, 16]: 1.848 | Cytotoxicity (%) [4, 16]: 8% | Percentage of MNBN Cells/Total BN Cells counted (%) [4, 16]: 0.4% | CBPI [4, 17]: 1.824 | Cytotoxicity (%) [4, 17]: 10% | CBPI [4, 18]: 1.84 | Cytotoxicity (%) [4, 18]: 9% | CBPI [4, 19]: 1.836 | Cytotoxicity (%) [4, 19]: 9% | Percentage of MNBN Cells/Total BN Cells counted (%) [4, 19]: 0.6% | CBPI [4, 20]: 1.388 | Cytotoxicity (%) [4, 20]: 58% | Percentage of MNBN Cells/Total BN Cells counted (%) [4, 20]: 0.4% | CBPI [4, 21]: 1.916 | Cytotoxicity (%) [4, 21]: 0% | CBPI [4, 22]: 1.86 | Cytotoxicity (%) [4, 22]: 6% | CBPI [4, 23]: 1.912 | Cytotoxicity (%) [4, 23]: 0% | CBPI [4, 24]: 1.832 | Cytotoxicity (%) [4, 24]: 9% | CBPI [4, 25]: 1.864 | Cytotoxicity (%) [4, 25]: 6% | CBPI [4, 26]: 1.876 | Cytotoxicity (%) [4, 26]: 4% | CBPI [4, 27]: 1.88 | Cytotoxicity (%) [4, 27]: 4% | CBPI [4, 28]: 1.804 | Cytotoxicity (%) [4, 28]: 12% | CBPI [4, 29]: 1.84 | Cytotoxicity (%) [4, 29]: 8% | CBPI [4, 30]: 1.792 | Cytotoxicity (%) [4, 30]: 14% | CBPI [4, 31]: 1.8 | Cytotoxicity (%) [4, 31]: 13% | Percentage of MNBN Cells/Total BN Cells counted (%) [4, 31]: 0.4% | CBPI [4, 32]: 1.832 | Cytotoxicity (%) [4, 32]: 9% | CBPI [4, 33]: 1.808 | Cytotoxicity (%) [4, 33]: 12% | CBPI [4, 34]: 1.704 | Cytotoxicity (%) [4, 34]: 23% | Percentage of MNBN Cells/Total BN Cells counted (%) [4, 34]: 0.4% | CBPI [4, 35]: 1.496 | Cytotoxicity (%) [4, 35]: 46% | Percentage of MNBN Cells/Total BN Cells counted (%) [4, 35]: 0.4% | micronucleus test result ([4]; up to 2000 µg/ml, with or without S-9): No induction of micronuclei; also recorded: negative | plasma protein binding [5]: 33%
